Source: patent EP3046573B1, “AMYLIN ANALOGUES” (Zealand Pharma A/S, priority 2013, dated 2015)
Read-outs that look alike come from different tables or passages of the source. Numbered stars: 1 amine (or outer) side, 2 acyl side, 3 side chain; on linkers, the order of the positions; unused ones are H or OH. Bridge positions count the residues as written; N and C are the ends. Square brackets hold non-standard residues; d marks the D form. Peptide text beside a SMILES is read from it. * marks the point of attachment. C20 diacid = O=C(O)CCCCCCCCCCCCCCCCCCC(=O)*; γGlu = O=C(O)[C@H](CCC(=O)[*:2])N[*:1]; Hyp = O=C(O)[C@@H]1C[C@@H](O)CN1; NMeI = CC[C@H](C)[C@H](NC)C(=O)O; Sar = CNCC(=O)O

Legend:
[1] = biological target: T1, human calcitonin receptor (hCTR2) (Homo sapiens, UniProt P30988); experiment: hCTR2 assay: induction of cAMP (AlphaScreen cAMP Assay kit) in COS7 cells expressing hCTR2; assay type: cell-based
T1 construct: expressed in transfected cells
T1 sequence (P30988 25-474): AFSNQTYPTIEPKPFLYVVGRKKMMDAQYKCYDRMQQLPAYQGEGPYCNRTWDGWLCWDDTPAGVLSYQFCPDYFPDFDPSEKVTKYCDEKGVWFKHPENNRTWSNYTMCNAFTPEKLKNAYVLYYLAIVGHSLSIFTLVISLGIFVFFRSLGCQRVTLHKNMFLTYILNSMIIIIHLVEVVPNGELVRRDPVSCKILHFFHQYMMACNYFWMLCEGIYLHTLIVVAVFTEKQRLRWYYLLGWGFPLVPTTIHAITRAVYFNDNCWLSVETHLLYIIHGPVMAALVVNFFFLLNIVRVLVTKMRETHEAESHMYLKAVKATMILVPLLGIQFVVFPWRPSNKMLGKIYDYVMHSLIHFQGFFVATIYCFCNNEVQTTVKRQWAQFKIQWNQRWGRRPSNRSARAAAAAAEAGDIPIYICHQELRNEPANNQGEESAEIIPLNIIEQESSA
Method in brief: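 cAMP read-out by AlphaScreen after cell lysis; EC50 and % efficacy vs pramlintide from 4-parameter logistic fitting. Agonist stimulation: hCTR2-COS7 stable cells, 15 min, 37° C, 100 µM IBMX, 0.1% casein, Tyrode/HEPES pH 7.4.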

[2] = Solubility assessment (turbidity absorbance at 325 nm); assay type: physicochemical; settings: stock 2 mg/ml diluted 1:1, ambient temperature (typically 25°C), n=1; for Solubility, Acetate buffer pH 4: 100 mM acetate buffer pH 4.0; for Solubility, Acetate buffer pH 5: 100 mM acetate buffer pH 5.0; for Solubility, Histidine buffer pH 6: 100 mM histidine buffer pH 6.0; for Solubility, Histidine buffer pH 7: 100 mM histidine buffer pH 7.0; for Solubility, Phosphate buffer pH 6: 100 mM phosphate buffer pH 6.0; for Solubility, Phosphate buffer pH 7: 100 mM phosphate buffer pH 7.0; for Solubility, Phosphate buffer pH 7.5: 100 mM phosphate buffer pH7.5
Method in brief: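 Turbidimetric screen across pH 4.0–7.5 in 100 mM acetate, histidine and phosphate buffers. A 2 mg/ml peptide stock (pH 2.5) was diluted 1:1 into each, then A325 measured at ambient temperature; values ≤ 0.02 AU denoted solubility of 1 mg/ml or more.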

Sprague Dawley (SD) rats = experiment: Acute food intake and body weight in normal Sprague Dawley rats; assay type: in vivo; settings: vehicle-corrected, dose 30 nmol/kg sc, once; for Body weight loss (%) after 96 hours: mean ± SEM, n = 8
Experimental: Sprague Dawley (SD) rats were obtained from Taconic A/S, Denmark. The animals arrived at least 7 days before the study start to allow acclimatization to experimental conditions. From arrival and throughout the study, the rats were housed in groups of 2 (n = 2) in a light-, temperature- and humidity-controlled room (reversed 12/12 h light/dark cycle: lights turned off during day-time and on during night-time; temperature 20-22°C; relative humidity 50-80%). Animals had access ad libitum to food (Altromin™ 1324, Brogaarden A/S, Gentofte, Denmark) and water (domestic quality tap water with citric acid added to pH ∼ 3.6) during the entire study. Stratification of rats was based on body weight (BW) on a cage-by-cage basis; mean BWs per cage were used as the basis for pairing four cages together in a group (n = 8 per group). A vehicle group and positive control group were included in each set of tests. Rats were dosed subcutaneously (sc) once in the morning immediately before turning off the lights, using a body weight-corrected dose of peptide (30 nmol/kg). Dosing volume was 5 ml/kg. Food intake was recorded manually at t = 0 (pre-dose) and at t = 4, 7, 10, 24, 48, 72 and 96 hours after dosing. Body weight was measured daily.
Statistical analyses on body weight were performed using GraphPad™ Prism version 5. The measured parameters were compared using unpaired t tests. Differences were considered statistically significant at p < 0.05. Data are means ± SEM; n =8.

[3] = cAMP induction in COS7 cells expressing hCTR2, average of a minimum of 3 determinations, read-out: hCTR2 EC50

## CC[C@H](C)[C@@H](C(=O)N[C@@H](CC(C)C)C(=O)N[C@@H](CO)C(=O)N[C@@H](CO)C(=O)N[C@H](C(=O)N[C@@H](CCC(=O)O)C(=O)N[C@H](C(=O)NCC(=O)N[C@@H](CO)C(=O)N[C@@H](CCC(=O)O)C(=O)N[C@H](C(=O)N1C[C@H](O)C[C@H]1C(N)=O)[C@@H](C)O)C(C)C)[C@@H](C)O)N(C)C(=O)[C@H](C)NC(=O)CN(C)C(=O)[C@H](Cc1ccccc1)NC(=O)[C@H](CO)NC(=O)[C@H](CO)NC(=O)[C@H](CCCNC(=N)N)NC(=O)[C@H](Cc1c[nH]cn1)NC(=O)[C@H](CC(C)C)NC(=O)[C@H](Cc1ccccc1)NC(=O)[C@H](CCC(=O)O)NC(=O)[C@H](C)NC(=O)[C@H](CC(C)C)NC(=O)[C@H](CCCNC(=N)N)NC(=O)[C@H](CCC(=O)O)NC(=O)[C@@H](NC(=O)[C@H](C)NC(=O)[C@@H]1CSSC[C@H](NC(=O)[C@H](CCCNC(=N)N)NC(=O)CC[C@H](NC(=O)CCCCCCCCCCCCCCCCCCC(=O)O)C(=O)O)C(=O)NCC(=O)N[C@@H]([C@@H](C)O)C(=O)N[C@@H](C)C(=O)N[C@@H]([C@@H](C)O)C(=O)N1)[C@@H](C)O [Compound 166, [19CD]-isoGlu-RC()GTATC()ATERLAEFLHRSSF-Gly(Me)-A-Ile(Me)-LSSTEVGSET-Hyp-NH2] ({C20 diacid-γGlu}-RCGTATCATERLAEFLHRSSF[Sar]A[NMeI]LSSTEVGSET[Hyp]-NH2; disulfide 2-7)
[1]; [3]
  EC50: 0.074 nM
[2]
  Solubility, Acetate buffer pH 4: SS (SS indicates solubility ≥ 1mg/ml)
  Solubility, Acetate buffer pH 5: SS (SS indicates solubility ≥ 1mg/ml)
  Solubility, Histidine buffer pH 6: SS (SS indicates solubility ≥ 1mg/ml)
  Solubility, Histidine buffer pH 7: SS (SS indicates solubility ≥ 1mg/ml)
  Solubility, Phosphate buffer pH 6: SS (SS indicates solubility ≥ 1mg/ml)
  Solubility, Phosphate buffer pH 7: SS (SS indicates solubility ≥ 1mg/ml)
  Solubility, Phosphate buffer pH 7.5: SS (SS indicates solubility ≥ 1mg/ml)
Sprague Dawley (SD) rats
  Food intake inhibition (%) after 48 hours: 99%
  Body weight loss (%) after 96 hours: 12 ± 1.6%

## CC[C@H](C)[C@@H](C(=O)N[C@@H](CC(C)C)C(=O)N[C@@H](CO)C(=O)N[C@@H](CO)C(=O)N[C@H](C(=O)N[C@@H](CC(N)=O)C(=O)N[C@H](C(=O)NCC(=O)N[C@@H](CO)C(=O)N[C@@H](CC(N)=O)C(=O)N[C@H](C(=O)N1CCC[C@H]1C(N)=O)[C@@H](C)O)C(C)C)[C@@H](C)O)N(C)C(=O)[C@H](C)NC(=O)CN(C)C(=O)[C@H](Cc1ccccc1)NC(=O)[C@H](CC(N)=O)NC(=O)[C@H](CC(N)=O)NC(=O)[C@H](CO)NC(=O)[C@H](CO)NC(=O)[C@H](CCCNC(=N)N)NC(=O)[C@H](Cc1c[nH]cn1)NC(=O)[C@H](CC(C)C)NC(=O)[C@H](Cc1ccccc1)NC(=O)[C@H](CCC(=O)O)NC(=O)[C@H](C)NC(=O)[C@H](CC(C)C)NC(=O)[C@H](CCCNC(=N)N)NC(=O)[C@H](CCC(N)=O)NC(=O)[C@@H](NC(=O)[C@H](C)NC(=O)[C@@H]1CSSC[C@H](NC(=O)[C@H](Cc2c[nH]c3ccccc23)NC(=O)[C@H](CCCNC(=N)N)NC(=O)CC[C@H](NC(=O)CCCCCCCCCCCCCCCCCCC(=O)O)C(=O)O)C(=O)N[C@@H](CC(N)=O)C(=O)N[C@@H]([C@@H](C)O)C(=O)N[C@@H](C)C(=O)N[C@@H]([C@@H](C)O)C(=O)N1)[C@@H](C)O [Compound 174, [19CD]-isoGlu-RWC()NTATC()ATQRLAEFLHRSSNNF-Gly(Me)-A-Ile(Me)-LSSTNVGSNTP-NH2] ({C20 diacid-γGlu}-RWCNTATCATQRLAEFLHRSSNNF[Sar]A[NMeI]LSSTNVGSNTP-NH2; disulfide 3-8)
[1]
  EC50: 0.18 nM
[2]
  Solubility, Acetate buffer pH 4: SS (SS indicates solubility ≥ 1mg/ml)
  Solubility, Acetate buffer pH 5: SS (SS indicates solubility ≥ 1mg/ml)
  Solubility, Histidine buffer pH 6: SS (SS indicates solubility ≥ 1mg/ml)
  Solubility, Histidine buffer pH 7: SS (SS indicates solubility ≥ 1mg/ml)
  Solubility, Phosphate buffer pH 6: SS (SS indicates solubility ≥ 1mg/ml)
  Solubility, Phosphate buffer pH 7: SS (SS indicates solubility ≥ 1mg/ml)
  Solubility, Phosphate buffer pH 7.5: II (II indicates solubility ≤ 1 mg/ml)
Sprague Dawley (SD) rats
  Food intake inhibition (%) after 48 hours: 99%
  Body weight loss (%) after 96 hours: 8 ± 1.4%

## CC[C@H](C)[C@@H](C(=O)N[C@@H](CC(C)C)C(=O)N[C@@H](CO)C(=O)N[C@@H](CO)C(=O)N[C@H](C(=O)N[C@@H](CCC(=O)O)C(=O)N[C@H](C(=O)NCC(=O)N[C@@H](CO)C(=O)N[C@@H](CCC(=O)O)C(=O)N[C@H](C(=O)N1CCC[C@H]1C(N)=O)[C@@H](C)O)C(C)C)[C@@H](C)O)N(C)C(=O)[C@H](C)NC(=O)CN(C)C(=O)[C@H](Cc1ccccc1)NC(=O)[C@H](CO)NC(=O)[C@H](CO)NC(=O)[C@H](CO)NC(=O)[C@H](CO)NC(=O)[C@H](CCCNC(=N)N)NC(=O)[C@H](Cc1c[nH]cn1)NC(=O)[C@H](CC(C)C)NC(=O)[C@H](Cc1ccccc1)NC(=O)[C@H](CCC(=O)O)NC(=O)[C@H](C)NC(=O)[C@H](CC(C)C)NC(=O)[C@H](CCCNC(=N)N)NC(=O)[C@H](CCC(N)=O)NC(=O)[C@@H](NC(=O)[C@H](C)NC(=O)[C@@H]1CSSC[C@H](NC(=O)[C@H](CCCNC(=N)N)NC(=O)CC[C@H](NC(=O)CCCCCCCCCCCCCCCCCCC(=O)O)C(=O)O)C(=O)N[C@@H](CC(N)=O)C(=O)N[C@@H]([C@@H](C)O)C(=O)N[C@@H](C)C(=O)N[C@@H]([C@@H](C)O)C(=O)N1)[C@@H](C)O [Compound 76, [19CD]-isoGlu-RC()NTATC()ATQRLAEFLHRSSSSF-Gly(Me)-A-Ile(Me)-LSSTEVGSETP-NH2] ({C20 diacid-γGlu}-RCNTATCATQRLAEFLHRSSSSF[Sar]A[NMeI]LSSTEVGSETP-NH2; disulfide 2-7)
[1]; [3]
  EC50: 0.19 nM
[2]
  Solubility, Acetate buffer pH 4: SS (SS indicates solubility ≥ 1mg/ml)
  Solubility, Acetate buffer pH 5: II (II indicates solubility ≤ 1 mg/ml)
  Solubility, Histidine buffer pH 6: SS (SS indicates solubility ≥ 1mg/ml)
  Solubility, Histidine buffer pH 7: SS (SS indicates solubility ≥ 1mg/ml)
  Solubility, Phosphate buffer pH 6: SS (SS indicates solubility ≥ 1mg/ml)
  Solubility, Phosphate buffer pH 7: SS (SS indicates solubility ≥ 1mg/ml)
  Solubility, Phosphate buffer pH 7.5: SS (SS indicates solubility ≥ 1mg/ml)
Sprague Dawley (SD) rats
  Food intake inhibition (%) after 48 hours: 100%
  Body weight loss (%) after 96 hours: 11 ± 1.2%
